{"source": "patent US9133239B2", "about": "“Compositions and methods for inhibiting matrix metalloproteinase (MMP)-mediated cell migration” (THE RESEARCH FOUNDATION FOR THE STATE UNIVERSITY OF NEW YORK, priority 2010, dated 2015)", "key": {"cells expressing MT1-MMP": {"system": "cells expressing MT1-MMP", "assay": "Flow cytometry binding to cells", "settings": "flow cytometry analysis", "description": "(§1) Based on our studies of the structure-function relationship of the MT1-MMP hemopexin (PEX)-like domain, we designed and synthesized peptides mimicking 8 amino acids of the outermost β strand of blades I, II, III and IV from the PEX domain, named IS4-8 ([…]) (SEQ ID NO:01), IIS4-8 ([…]) (SEQ ID NO:02), and IVS4-8 ([…]) (SEQ ID NO:03), respectively. Corresponding scrambled peptides were synthesized as controls. […] We further designed truncated forms of IS4-8 and IVS-8 peptides from the N- and C-terminus of the peptides. The C-terminal 5 amino acids of the IS4-8, named IS4-5 (GYPMP) (SEQ ID NO:04) is essential for inhibition of functional MT1-MMP. […] Thus, the PEX domain of MT1-MMP is a high-specificity target for interference with MT1-MMP-induced cancer cell invasion and for identification of cancer cells expressing MT1-MMP. These novel bi-functional inhibitory peptides will provide specificity with limited systemic toxicity."}, "[1]": {"system": "human HT1080 fibrosarcoma cells", "assay": "Cell migration of HT1080 cells expressing endogenous MT1-MMP", "assay_type": "cell-based", "description": "as §1"}, "[2]": {"system": "human MDA-MB-231, and -435 breast cancer cells (-435)", "assay": "Cell migration of MDA-MB-435 cells expressing endogenous MT1-MMP", "assay_type": "cell-based", "description": "as §1"}, "[3]": {"system": "human breast cancer MCF-7 cells ectopically expressing MT1-MMP", "assay": "proMMP-2 activation by gelatin zymography of conditioned medium", "assay_type": "cell-based", "settings": "MCF-7 cells expressing MT1-MMP", "description": "The conditioned medium from human breast cancer MCF-7 cells ectopically expressing MT1-MMP in the presence of scrambled peptides or specific peptides was examined by gelatin zymography to determine whether interference with the PEX domain of MT1-MMP by the peptides also affects the proteolytic activity of MT1-MMP."}, "[4]": {"system": "cell migration induced by MT6-MMP", "assay": "Cell migration induced by MT6-MMP (specificity)", "assay_type": "cell-based", "description": "as §1\n(§2) The term “specifically reduces cell migration that is mediated by MT1-MMP” when in reference to a composition means that the composition reduces cell migration that is mediated by MT1-MMP, in the absence of a reduction of cell migration that is mediated by MMP-9 and/or MT3-MMP and/or MT6-MMP (FIG. 7)."}, "[5]": {"system": "human MDA-MB-231 breast cancer cell"}, "[6]": {"system": "human MDA-MB-231 breast cancer cells", "assay": "Cell migration of MDA-MB-231 cells expressing endogenous MT1-MMP", "assay_type": "cell-based", "description": "as §1"}, "[7]": {"system": "COS-1 cells transfected with MT1-MMP cDNA", "assay": "Cell migration of MT1-MMP transfected COS-1 cells", "assay_type": "cell-based", "description": "as §1"}, "[8]": {"system": "cell migration induced by MMP-9", "assay": "Cell migration induced by MMP-9 (specificity)", "assay_type": "cell-based", "description": "as §1, §2"}, "MT1-GFP expressing cells": {"system": "MT1-GFP expressing cells", "assay": "Combined FITC-labeled fibronectin substrate degradation and phagokinetic assay", "assay_type": "cell-based", "description": "Using FITC-labeled gelatin coated coverslips and engineered MT1-MMP substitution mutations, structure-function relationships of MT1-MMP in cell invasion and migration were studied by domain shuffling experiments (FIG. 32A). As expected, MT1-MMP expressing cells degraded FITC-labeled gelatin and migrated over digested substrate (FIG. 32B). […] To examine the effect of proteolytic activity of MT1-MMP on cell migration, we employed a natural MMP inhibitor, TIMP-2 in combined FITC-labeled substrate degradation assay and phagokinetic assay (54) by coating coverslips with both FIT-labeled fibronectin and colloidal gold particles."}, "[9]": {"system": "MT1-GFP expressing LNCaP cells", "assay": "FITC-labeled Matrigel degradation in the presence of proMMP-2", "assay_type": "cell-based, human", "description": "To examine the role of MT1-MMP in invasion through basement membrane in an in vitro assay, we labeled Matrigel, a soluble basement membrane matrix from the EHS tumor with FITC. Western blotting using anti-type IV collagen and anti-laminin V antibodies confirmed that type IV collagen and laminin V remained intact in FITC-labeled Matrigel. Using FITC-labeled Matrigel-coated coverslips, LNCaP cells producing MT1-GFP were examined for Matrigel degradation. MT1-MMP expressing LNCaP cells readily degraded the FITC-labeled substrate (depicted by loss of fluorescence-labeled Matrigel in FIG. 31A-a)."}, "[10]": {"system": "MT1-GFP expressing LNCaP cells", "assay": "Cell surface E-cadherin shedding", "assay_type": "cell-based, human", "method": "To examine if shedding of E-cadherin at cell-cell adherens junctions correlated with loss of cell surface E-cadherin, biotinylation of cell surface proteins followed by streptavdin precipitation and Western blotting using anti-E-cadherin antibody was performed (51)."}, "[11]": {"system": "MT1-GFP expressing LNCaP cells", "assay": "Cell scattering in 3D type I collagen gel", "assay_type": "cell-based, human", "settings": "TIMP-2 10 nM", "description": "Although increasing evidence highlight the importance of proteolytic remodeling of the ECM during invasion (65,66), recent reports have challenged this concept showing that the ability of tumor cells to migrate through collagenous barriers by switching to an amoeboid-like form was independent on proteinases (67). This observation, however, was possible due to reversible MMP inhibitors and low concentration of inhibitors (68). […] Employing a 3-dimensional (3D) culture in native type I collagen gel, we examined the cell scattering effect of MT1-GFP. […] GFP-alone expressing LNCaP cells formed spherical aggregates (FIG. 37A-a2-a3), while MT-GFP expressing LNCaP cells presented a scattered distribution in the gels (FIG. 37-b2-b3). H & E staining of frozen sections confirmed this observation (FIG. 37A-a4,b4)."}, "[12]": {"system": "MT1-MMP-mediated cell migration (LNCaP)", "assay": "FITC-fibronectin degradation assay and Transwell chamber migration assay with GST-MTPEX", "assay_type": "cell-based", "description": "Our results and others emphasized the critical role of the PEX domain of MT1-MMP in cells migration (8,57). […] As proof of this hypothesis, we generated chimeric cDNAs encoding GST and GST-MTPEX chimera."}, "[13]": {"system": "GFP expressing MDA-MB-435 cells", "assay": "Mammary fat pad tumor growth and lung metastasis model", "assay_type": "in vivo, immunodeficient female mice", "settings": "20 mg/kg/day i.p. and intratumoral alternatively; after twelve weeks", "method": "2×10^6 GFP expressing MDA-MB-435 cells were injected in the mammary fat pad of immunodeficient female mice followed by administering 20 mg/kg/day of specific and scrambled peptides via i.p. and intratumoral injection, alternatively. Primary tumor size was monitored over a 10-week time course. Inhibitory peptides had no effect on tumor growth (A). After twelve weeks, the mice were sacrificed and the organs were pathologically examined. The lungs were sliced into 3 mm thick sections. The incidence of lung metastasis was assessed by examining metastatic tumors in the lungs (B). The number (C) and size (D) of metastasized tumors in the lungs were microscopically counted based on GFP expression and measured using Nikon NIS Elements Imaging software, respectively."}}, "note": "Like-named read-outs stand apart in the source and are kept apart here. Where a SMILES comes first, the peptide text is derived from it. Where no end group is shown, it is not given here.", "data": [{"compound": "biotinylated IS4-5: biotinylated IS4-5 (GYPMP) peptide used for flow cytometry (also: biotinylated, position not given here)", "values": [{"measurement": "binding to cells expressing MT1-MMP", "setting": "cells expressing MT1-MMP", "value": "specifically binds to cells expressing MT1-MMP"}]}, {"compound": "CSCC[C@H](NC(=O)[C@@H](N)C(C)C)C(=O)N[C@@H](CC(=O)O)C(=O)NCC(=O)N[C@@H](Cc1ccc(O)cc1)C(=O)N1CCC[C@H]1C(=O)N[C@@H](CCSC)C(=O)N1CCC[C@H]1C(=O)O", "note": "[IS4-8] (H-VMDGYPMP-OH; N-terminus and C-terminus assumed)", "values": [{"measurement": "cell migration", "setting": "[1]", "value": "reduce cell migration"}, {"measurement": "cell migration", "setting": "[2]", "value": "reduce cell migration"}, {"measurement": "MT1-MMP-induced proMMP-2 activation", "setting": "[3]", "value": "specifically inhibited"}, {"measurement": "cell migration induced by MT6-MMP", "setting": "[4]", "value": "do not affect cell migration"}, {"measurement": "IC50", "setting": "[5]", "value": 1.5, "unit": "µM"}, {"measurement": "cell migration", "setting": "[6]", "value": "reduce cell migration"}, {"measurement": "cell migration", "setting": "[7]", "value": "reduce cell migration"}, {"measurement": "cell migration induced by MMP-9", "setting": "[8]", "value": "do not affect cell migration"}]}, {"compound": "tissue inhibitor of matrix metalloproteinase-2 [TIMP-2]", "values": [{"measurement": "substrate degradation (FITC-labeled fibronectin)", "setting": "MT1-GFP expressing cells", "value": "interfered with substrate degradation"}, {"measurement": "digestion of FITC-labeled Matrigel", "setting": "[9]", "value": "totally abolished the digestion of Matrigel"}, {"measurement": "cell surface E-cadherin shedding", "setting": "[10]", "value": "interfered with cell surface E-cadherin shedding"}, {"measurement": "scattered distribution of cells in type I collagen gel", "setting": "[11]", "value": "abolished"}]}, {"compound": "GST-tagged MTPEX protein: purified GST fusion protein of the PEX domain of MT1-MMP", "values": [{"measurement": "MT1-MMP-mediated cell migration", "setting": "[12]", "value": "inhibited MT1-MMP-mediated cell migration"}, {"measurement": "MT1-MMP-mediated cell migration", "setting": "[12]; listed as MT1-MMPPEX", "value": "inhibited MT1-MMP-medicated LNCaP cell migration"}, {"measurement": "MT1-MMP-mediated cell migration", "setting": "[12]; listed as recombinant MT1-PEX protein", "value": "blocked MT1-MMP-mediated cell migration"}]}, {"compound": "TIMP-1: recombinant TIMP-1, tissue inhibitor of metalloproteinases used as control inhibitor", "values": [{"measurement": "cell migration over Matrigel", "setting": "[9]", "value": "did not interfere with cell migration"}, {"measurement": "digestion of FITC-labeled Matrigel", "setting": "[9]", "value": "partial inhibition of substrate digestion"}]}, {"compound": "CC(C)C[C@H](NC(=O)[C@H](C)NC(=O)[C@H](CO)NC(=O)[C@H](CCCCN)NC(=O)[C@@H]1CCCN1C(=O)[C@H](Cc1ccc(O)cc1)NC(=O)CN)C(=O)N[C@@H](CCCNC(=N)N)C(=O)O", "note": "[IVS4-8] (H-GYPKSALR-OH; N-terminus and C-terminus assumed)", "values": [{"measurement": "cell migration", "setting": "[1]", "value": "reduce cell migration"}, {"measurement": "cell migration", "setting": "[2]", "value": "reduce cell migration"}, {"measurement": "cell migration induced by MT6-MMP", "setting": "[4]", "value": "do not affect cell migration"}, {"measurement": "IC50", "setting": "[5]", "value": 10, "unit": "µM"}, {"measurement": "cell migration", "setting": "[6]", "value": "reduce cell migration"}, {"measurement": "cell migration", "setting": "[7]", "value": "reduce cell migration"}, {"measurement": "cell migration induced by MMP-9", "setting": "[8]", "value": "do not affect cell migration"}]}, {"compound": "IVS4: MT1-MMP specific inhibitory IVS4 peptide given to mice in Example 27; probably IVS4-8 (GYPKSALR)", "values": [{"measurement": "lung metastasis (degree/number of metastasized tumors)", "setting": "[13]", "value": "reduced"}, {"measurement": "tumor foci area (size) in the lung", "setting": "[13]", "value": "tumor sizes in scramble peptide treated mice were noticeably larger"}]}, {"compound": "IS4: MT1-MMP specific inhibitory IS4 peptide given to mice in Example 27; length (IS4-8 or IS4-5) not stated (VMDGYPMP)", "values": [{"measurement": "lung metastasis (degree/number of metastasized tumors)", "setting": "[13]", "value": "reduced"}, {"measurement": "tumor foci area (size) in the lung", "setting": "[13]", "value": "tumor sizes in scramble peptide treated mice were noticeably larger"}]}, {"compound": "CSCC[C@H](NC(=O)[C@@H]1CCCN1C(=O)[C@H](Cc1ccc(O)cc1)NC(=O)CN)C(=O)N1CCC[C@H]1C(=O)O", "note": "[IS4-5, GYPMP] (H-GYPMP-OH; N-terminus and C-terminus assumed)", "values": [{"measurement": "MT1-MMP-induced proMMP-2 activation", "setting": "[3]", "value": "specifically inhibited"}, {"measurement": "IC50", "setting": "[5]", "value": 1.5, "unit": "µM"}]}]}
